Results: patent US7659277B2, “Ubiquitin ligase inhibitors and methods related thereto” (Proteologies, Ltd., priority 2003, dated 2010)

Assays:
Type in all cases: biochemical
[1] = biological target: T1, POSH (Homo sapiens, UniProt Q7Z6J0); assay: Selectivity (% A in 1 μM), ubiquitin ligase activity of POSH; details: % activity at 1 μM compound; control is related to 100% activity; HTS protocol; read-out: Selectivity (% A* in 1 μM) POSH
T1 construct: GST-POSH lot NB81/p.118 3.6 mg/ml; fused on or other part: GST tag, used for detection with anti-GST XL665
T1 sequence (Q7Z6J0 1-269 limits assumed): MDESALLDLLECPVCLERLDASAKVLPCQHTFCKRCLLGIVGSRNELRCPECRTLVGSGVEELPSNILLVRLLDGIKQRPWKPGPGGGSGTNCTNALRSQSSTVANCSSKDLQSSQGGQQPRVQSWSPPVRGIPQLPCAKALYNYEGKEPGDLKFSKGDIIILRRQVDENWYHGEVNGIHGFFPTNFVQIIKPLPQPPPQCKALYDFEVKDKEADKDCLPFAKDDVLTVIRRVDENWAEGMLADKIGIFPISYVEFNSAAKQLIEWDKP
Method: Experimental Protocols: 1. HTS Screening Assay Procedure • Microplates 10109D to 10114D compounds at 1 mM. • (Controls in column 1). • All compounds were perchase from ChemBridge corporation: ChemBridge corporation 16981 Via Tazon, Suite G San Diego, Calif. 92127 a. Microplates Labeling • Put labels to 6 PS U-bottom clear microplate. • Put labels to 18 black microplates (triplicats). b. Microplates Preparation • Put 100 μl GST-POSH at 33 nM in wells of the clear PS U-bottom microplates (exept wells A1-D1). • Negative control: place 100 μl dH2O in wells A1-D1. • (Positive control: place 100 μl GST-POSH at 33 nM in wells E1-H1). • Put 8 μl enzymes solution ×4 to black microplates (column 1 to 11). c. Incubation of E3 with Compounds • Transfer 5 μl of compounds (at 1 mM) to the microplates containing 100 μl GST-POSH. • Add 5 μl of DMSO to controls column 1. • Incubation 30 minutes at RT. d. […] 2. […] Microplates Labeling • Put labels to 4 clear PP clear microplate (18.2 μM, 9.1 uM, 1.82 uM, 910 nM,). • Put labels to 5 clear PS U-bottom clear microplate 4.44 μM, 909, 444, 91 and 44 nM) • Put labels to 15 black microplates (triplicates). f. Original Microplate Dilutions • Put DMSO 40 μl to (18.2 μM, 1.82 uM plates) and 20 ul to (9.1 uM, 910 nM plates. • Mix by pipetation the original microplate (3× up and down 45 μl). • Transfer 10 μl of compounds from the original microplate (at 91 μM) to the next microplate (=18.2 μM) on splitting apparatus. • Mix by pipetation the 18.2 uM microplate (3× up and down 45 μl). • Transfer 20 μl of compounds from the 18.2 uM microplate to the next microplate (=9.1 μM) on splitting apparatus. • Mix by pipetation the 9.1 uM microplate (3× up and down 45 μl). • Transfer 10 μl of compounds from the 9.1 uM microplate to the next microplate (=1.82 μM) on splitting apparatus. • Mix by pipetation the 1.82 uM microplate (3× up and down 45 μl). • Transfer 20 μl of compounds from the 1.82 uM microplate to the next microplate (=910 nM) on splitting apparatus • Mix by pipetation. g. Microplates Preparation • Put 123 μl GST-POSH at 33 nM in wells of the 5 clear PS U-bottom clear microplates. • Positive control: place 123 μl GST-POSH at 33 nM in well A12-h12 13 μl DMSO. • Negative control: place 123 μl dH2O in well B1 and 13 μl DMSO. • Put 8 μl enzymes solution ×4 to 15 black microplates. • Controls: put 8 μl enzymes solution ×4 to wells A1 to F1. h. Incubation of POSH with Compounds • Take 7 μl of compounds at original plate (91 μM) and put into the 4.44 μM labeled microplate containing 123 μl GST-POSH, on splitting apparatus. • Mix by pipetation (3× up and down 115 μl), note time. • Take 7 μl of compounds at 18.2 μM and put into the 910 nM labeled microplate containing 123 μl GST-POSH, on splitting apparatus. • Mix by pipetation (3× up and down 115 μl), note time. • Take 7 μl of compounds at 9.1 μM and put into the 444 nM labeled microplate containing 123 μl GST-POSH, on splitting apparatus. • Mix by pipetation (3× up and down 115 μl), note time. • Take 7 μl of compounds at […] and put into the 91 nM labeled microplate containing 123 μl GST-POSH, on splitting apparatus. • Mix by pipetation (3× up and down 115 μl), note time. • Take 7 μl of compounds at 91.0 nM and put into the 44 nM labeled microplate containing 123 μl GST-POSH, on splitting apparatus. • Mix by pipetation (3× up and down 115 μl), note time. • Incubation 30 minutes at RT. i.

[2] = biological target: c-cbl (Homo sapiens, UniProt P22681); assay: Selectivity (% A in 1 μM), ubiquitin ligase activity of c-cbl; details: % activity at 1 μM compound; control is related to 100% activity; HTS protocol
[3] = system: E2 protein; details: % activity at 1 μM compound; control is related to 100% activity; HTS protocol

For `COc1cc(N/C=C2/C(=O)NC(=S)N(c3ccc(F)cc3)C2=O)cc(OC)c1` [Compound 17], the remaining activity at 1 µM [1] was 71%.

With `Cc1ccc2nc(-c3ccc(/N=C/c4ccc([N+](=O)[O-])s4)cc3)sc2c1` [Compound 72] the remaining activity at 1 µM [1] was 39%, the remaining activity at 1 µM [2] was 95% and the “Selectivity (% A* in 1 μM) E2” value [3] was 77%.

`Oc1ccc2ccccc2c1/C=N/c1ncc(Br)cc1Br` [Compound 66] was tested, and the remaining activity at 1 µM [1] was 53%, the remaining activity at 1 µM [2] was 107% and the “Selectivity (% A* in 1 μM) E2” value [3] was 117%.

For `Cc1ccc(/C=N/c2ccc(C(N)=O)cc2)o1` [Compound 73], the remaining activity at 1 µM [1] was 16%, the remaining activity at 1 µM [2] was 90% and the “Selectivity (% A* in 1 μM) E2” value [3] was 64%.

`O=C1\C(=C/C=C/C=C/Nc2ccccc2)SC(=S)N1c1ccccc1` [Compound 24] was tested, and the remaining activity at 1 µM [1] was 7%, the remaining activity at 1 µM [2] was 90% and the “Selectivity (% A* in 1 μM) E2” value [3] was 87%.

Work on `COc1ccccc1N1C(=O)NC(=O)/C(=C\C=C\c2ccccc2)C1=O` [Compound 10] yielded a remaining activity at 1 µM [1] of 15%.

`Cc1cc(C)c(O)c(/N=C/c2c(O)ccc3ccccc23)c1` [Compound 65] was tested, and the remaining activity at 1 µM [1] was 8%, the remaining activity at 1 µM [2] was 101% and the “Selectivity (% A* in 1 μM) E2” value [3] was 65%.

For `CC(=C\c1ccccc1)/C=C1/SC(=N)NC1=O` [Compound 31], the remaining activity at 1 µM [1] was 105%, the remaining activity at 1 µM [2] was 108% and the “Selectivity (% A* in 1 μM) E2” value [3] was 104%.

For `O=C1NC(=O)/C(=C\c2ccc(-c3ccc(F)cc3)o2)S1` [Compound 108], the remaining activity at 1 µM [1] was 42%.

With `Oc1c(Br)cc(Cl)cc1/C=N/c1ccccc1Br` [Compound 58] the remaining activity at 1 µM [1] was 40%, the remaining activity at 1 µM [2] was 115% and the “Selectivity (% A* in 1 μM) E2” value [3] was 108%.

In the case of `COc1ccccc1/C=C1\N=C(c2ccccc2Cl)OC1=O` [Compound 49], the remaining activity at 1 µM [1] was 77%, the remaining activity at 1 µM [2] was 127% and the “Selectivity (% A* in 1 μM) E2” value [3] was 43%.

`C=CCN1C(=O)NC(=O)/C(=C/c2ccc(F)cc2)C1=O` [Compound 12] showed a remaining activity at 1 µM [1] of 54%.

With `Cc1cc(I)ccc1NCn1nnc2ccccc21` [Compound 105] the remaining activity at 1 µM [1] was 28%, the remaining activity at 1 µM [2] was 117% and the “Selectivity (% A* in 1 μM) E2” value [3] was 93%.

Work on `COc1ccc(/C=C2\C(=O)NC(=S)N(c3ccccc3)C2=O)cc1` [Compound 11] yielded a remaining activity at 1 µM [1] of 21%.

In the case of `COc1ccc(/C=C/C(=O)C2C(=O)CCC2=O)cc1OC` [Compound 113], the remaining activity at 1 µM [1] was 74%, the remaining activity at 1 µM [2] was 93% and the “Selectivity (% A* in 1 μM) E2” value [3] was 66%.

`O=[N+]([O-])c1ccc(Cl)cc1CN1CCN(CCO)CC1` [Compound 82] was tested, and the remaining activity at 1 µM [1] was 60%, the remaining activity at 1 µM [2] was 77% and the “Selectivity (% A* in 1 μM) E2” value [3] was 47%.

For `CC(=O)Nc1ccc(-c2cc3ccccn3c2)cc1` [Compound 78], the remaining activity at 1 µM [1] was 22%, the remaining activity at 1 µM [2] was 151% and the “Selectivity (% A* in 1 μM) E2” value [3] was 43%.

In the case of `O=C1C=CC(=O)N1c1cc(Cl)cc(Cl)c1` [Compound 23], the remaining activity at 1 µM [1] was 9%, the remaining activity at 1 µM [2] was 102% and the “Selectivity (% A* in 1 μM) E2” value [3] was 112%.

With `O=[N+]([O-])c1ccc(-c2ccc(/N=C/c3c(O)ccc4ccccc34)cc2)cc1` [Compound 60] the remaining activity at 1 µM [1] was 22%, the remaining activity at 1 µM [2] was 110% and the “Selectivity (% A* in 1 μM) E2” value [3] was 53%.

In the case of `Oc1c(Br)cc(Cl)cc1/C=N/c1ccccn1` [Compound 64], the remaining activity at 1 µM [1] was 63%, the remaining activity at 1 µM [2] was 118% and the “Selectivity (% A* in 1 μM) E2” value [3] was 117%.

In the case of `O=C1N=C(c2ccccc2)S/C1=C/c1ccc2ccccc2c1` [Compound 41], the remaining activity at 1 µM [1] was 17%, the remaining activity at 1 µM [2] was 141% and the “Selectivity (% A* in 1 μM) E2” value [3] was 82%.

`Oc1c(Br)cc(Br)cc1/C=N/c1cccc2nsnc12` [Compound 112] was tested, and the remaining activity at 1 µM [1] was 27%, the remaining activity at 1 µM [2] was 117% and the “Selectivity (% A* in 1 μM) E2” value [3] was 84%.

For `O=C(C(Cl)Cl)N1CCN(c2ccc([N+](=O)[O-])cc2)CC1` [Compound 79], the remaining activity at 1 µM [1] was 120%, the remaining activity at 1 µM [2] was 89% and the “Selectivity (% A* in 1 μM) E2” value [3] was 55%.

`O=C1/C(=C\c2ccc(Cl)c([N+](=O)[O-])c2)Sc2ccccc21` [Compound 50] was tested, and the remaining activity at 1 µM [1] was 39%, the remaining activity at 1 µM [2] was 155% and the “Selectivity (% A* in 1 μM) E2” value [3] was 103%.

With `O=c1nc(C(F)(F)F)cc(/C=C/c2ccc(-c3ccc(Br)cc3)o2)[nH]1` [Compound 39] the remaining activity at 1 µM [1] was 29%, the remaining activity at 1 µM [2] was 132% and the “Selectivity (% A* in 1 μM) E2” value [3] was 98%.

For `O=C1CC(NNc2ccccc2)C(=O)N1c1cccc(Cl)c1` (stereo not drawn) [Compound 22], the remaining activity at 1 µM [1] was 26%, the remaining activity at 1 µM [2] was 64% and the “Selectivity (% A* in 1 μM) E2” value [3] was 91%.

For `O=C1NC(=O)N(c2ccc(Br)cc2)C(=O)/C1=C/c1ccc(O)cc1` [Compound 5], the remaining activity at 1 µM [1] was 13%.

Work on `O=C1NC(=S)N(c2ccccc2)C(=O)/C1=C\c1c(Cl)cccc1Cl` [Compound 6] yielded a remaining activity at 1 µM [1] of 14%.

`COc1ccc(CC(C)NCc2ccccc2Cl)cc1` (stereo not drawn) [Compound 107] was tested, and the remaining activity at 1 µM [1] was 68%.

With `Cc1cc(/N=C/c2c(O)ccc3ccccc23)no1` [Compound 111] the remaining activity at 1 µM [1] was 17%, the remaining activity at 1 µM [2] was 98% and the “Selectivity (% A* in 1 μM) E2” value [3] was 49%.

In the case of `O=c1/c(=C/c2cccc([N+](=O)[O-])c2O)sc2nc3ccccc3n12` [Compound 51], the remaining activity at 1 µM [1] was 51%, the remaining activity at 1 µM [2] was 104% and the “Selectivity (% A* in 1 μM) E2” value [3] was 113%.

In the case of `COc1cc(N/C=C2/C(=O)NC(=S)N(c3cccc(C)c3)C2=O)cc(OC)c1` [Compound 16], the remaining activity at 1 µM [1] was 51%.

In the case of `COc1cc(/C=C2\SC(=O)NC2=O)ccc1OCc1ccc(Cl)cc1Cl` [Compound 34], the remaining activity at 1 µM [1] was 23%, the remaining activity at 1 µM [2] was 135% and the “Selectivity (% A* in 1 μM) E2” value [3] was 93%.

In the case of `CCOC(=O)c1c(/N=C/c2cc(Br)ccc2O)sc2c1CCCC2` [Compound 68], the remaining activity at 1 µM [1] was 72%, the remaining activity at 1 µM [2] was 91% and the “Selectivity (% A* in 1 μM) E2” value [3] was 57%.

`O=[N+]([O-])c1ccc2c(c1)Cc1cc(/N=C/c3ccc(Br)cc3)ccc1-2` [Compound 67] was tested, and the remaining activity at 1 µM [1] was 103%, the remaining activity at 1 µM [2] was 92% and the “Selectivity (% A* in 1 μM) E2” value [3] was 98%.

For `O=C1N=C(c2ccccc2)S/C1=C/c1ccc(-c2cccc([N+](=O)[O-])c2)o1` [Compound 36], the remaining activity at 1 µM [1] was 6%, the remaining activity at 1 µM [2] was 86% and the “Selectivity (% A* in 1 μM) E2” value [3] was 82%.

Work on `COc1ccc(N2C(=O)NC(=O)/C(=C\c3ccc(Cl)cc3)C2=O)cc1` [Compound 7] yielded a remaining activity at 1 µM [1] of 108%.

`COc1cc(C=C2C(=O)N(C)C(=S)N(C)C2=O)ccc1O` [Compound 9] showed a remaining activity at 1 µM [1] of 91%.

For `O=C1C(=Cc2ccco2)C(=O)N(c2ccccc2)C(=S)N1c1ccccc1` [Compound 13], the remaining activity at 1 µM [1] was 7%.
